Results taken from US20230180804A1, “FLAVOR COMPOSITION, AND FOOD AND BEVERAGE” (TAKASAGO INTERNATIONAL CORPORATION, priority 2020, published 2023).

Assay: Sensory evaluation of p-cresol odor masking in p-cresol-containing citrus-flavored beverage
Conditions: for p-Cresol Odor Intensity: beverage with 50 ppb p-cresol, average score of 7 panelists, scale 0-4
Method: To 2 g of lemon flavor obtained by making lemon oil into an essence, purified water was added to adjust the total amount to 1000 ml. To this citrus-flavored beverage, p-cresol adjusted to a concentration of 1% by mass with 95% ethanol was added to 50 ppb in the citrus-flavored beverage. To this p-cresol-containing citrus-flavored beverage, 1-oxacycloheptadecan-7-en-2-one was added at the concentrations presented in Table 1 to confirm the p-cresol odor intensity (masking effect) and the influence on the citrus flavor of each sample.
For the test, seven skilled panelists were selected to perform sensory evaluation. The p-cresol odor intensity of the p-cresol-containing citrus-flavored beverage without added l-oxacycloheptadecan-7-en-2-one was determined as “Rating: 4,” and the p-cresol odor intensity of the p-cresol-free citrus-flavored beverage was determined as “Rating: 0,” and the p-cresol odor intensity (masking effect) of each sample was relatively evaluated according to the following evaluation criteria.
In addition, the influence of the citrus-flavored beverage on the citrus flavor was evaluated absolutely according to the following evaluation criteria for the presence or absence of off- flavor other than p-cresol odor and citrus flavor (Off-Flavor Intensity).
The results are as in Table 1, presenting the average score of the evaluation results for each panelist.

[1] = citrus-flavored beverage with 50 ppb p-cresol

O=C1CCCCCCCCCCCCCCO1 [Pentalide, pentalide]
p-Cresol Odor Intensity (0.01 ppt added): 3.6 points | p-Cresol Odor Intensity (0.1 ppt added): 2.9 points | p-Cresol Odor Intensity (1 ppb added): 1.4 points | p-Cresol Odor Intensity (1 ppt added): 2.6 points | p-Cresol Odor Intensity (10 ppb added): 1.0 points | p-Cresol Odor Intensity (10 ppt added): 2.0 points | p-Cresol Odor Intensity (100 ppb added): 0.6 points | p-Cresol Odor Intensity (100 ppt added): 1.9 points | concentration at which the compound masks the p-cresol odor and does not affect the citrus flavor, lower limit [1]: ≥ 0.1 ppt | concentration at which the compound masks the p-cresol odor and does not affect the citrus flavor, upper limit [1]: ≤ 1 ppb
